Patent publication US5567738A, “Use of 2-(4-(4-chlorophenyl)cyclohexyl)-3-hydroxy-1,4-Naphthoquinone for the treatment of cancer” (Glaxo Wellcome Inc., priority 1992, dated 1996)

Experiments:
Type in all cases: cell-based
[1] = system: DLD-1 (Human colon adenocarcinoma); test: Proliferative assay against tumour cell line DLD-1 in vitro; details: read-out: Activity (% Growth Inhibition)
Description: (§1) Activity Against Tumour Cell Lines In Vitro The activity of the test compound was evaluated using proliferative assays against a number of different turnout cell lines in vitro.

HT1080SCC2 = test: Activity against human fibrosarcoma cells in vitro, HT1080SCC2
Description: (§2) Activity Against Human Fibrosarcoma Cells In Vitro The activities of the test compound and of a soluble carbamate derivative thereof against two cell lines derived from human fibrosarcoma cells were measured.

[2] = system: two cell lines derived from human fibrosarcoma cells; test: Activity against two cell lines derived from human fibrosarcoma cells in vitro; details: both cell lines
Description: as §2

[3] = system: HCT-116 (Human colon carcinoma); test: Proliferative assay against tumour cell line HCT-116 in vitro; details: read-out: Activity (% Growth Inhibition)
Description: as §1

[4] = system: A549 (Human lung carcinoma); test: Proliferative assay against tumour cell line A549 in vitro; details: read-out: Activity (% Growth Inhibition)
Description: as §1

tumour cell lines = test: Activity against tumour cell lines in vitro, all cell lines tested (proliferative assays); details: at 1001 μM concentration (so in the source)
Description: as §1

[5] = system: P3888D1 (Mouse Leukaemia); test: Proliferative assay against tumour cell line P3888D1 in vitro; details: read-out: Activity (% Growth Inhibition)
Description: as §1

HT10801C = test: Activity against human fibrosarcoma cells in vitro, HT10801C
Description: as §2

[6] = system: WiDr (Human colon adenocarcinoma); test: Proliferative assay against tumour cell line WiDr in vitro; details: read-out: Activity (% Growth Inhibition)
Description: as §1

[7] = system: carcinoma, adenocarcinoma and fibrosarcoma cells; test: Activity against tumour cells (general statement)

Compound | inhibition at 100 µM [1] | IC50 (HT1080SCC2) | activity against human fibrosarcoma cell lines [2] | inhibition at 100 µM [3] | inhibition at 100 µM [4] | active against all the cell lines tested (tumour cell lines) | inhibition at 100 µM [5] | IC50 (HT10801C) | inhibition at 100 µM [6] | activity against tumour cells [7]
O=C1C(O)=C([C@H]2CC[C@H](c3ccc(Cl)cc3)CC2)C(=O)c2ccccc21 [Test Compound, 2-[trans-4-(4-chlorophenyl)cyclohexyl]-3-hydroxy-1,4-naphthoquinone] | 94.2% | 11 µM | active | 93.8% | 86.6% | active | 92.3% | 15 µM | 79.4% | –
O=C1C(O)=C(C2CCC(c3ccc(Cl)cc3)CC2)C(=O)c2ccccc21 (stereo not shown) [compound of formula (II), 2-[4-(4-chlorophenyl)cyclohexyl]-3-hydroxy-1,4-naphthoquinone] | – | – | – | – | – | – | – | – | – | exhibits activity against tumour cells
